Experimental data published in patent publication US20130101527A1, “METHODS, COMPOUNDS AND PHARMACEUTICAL COMPOSITIONS FOR TREATING NEUROLOGICAL DISORDERS” (priority 2011, published 2013).

How the values were obtained:
saliva-amylase = target: T1, saliva-amylase (Homo sapiens, UniProt P0DUB6); details: cited from earlier work
T1 sequence (P0DUB6 16-511): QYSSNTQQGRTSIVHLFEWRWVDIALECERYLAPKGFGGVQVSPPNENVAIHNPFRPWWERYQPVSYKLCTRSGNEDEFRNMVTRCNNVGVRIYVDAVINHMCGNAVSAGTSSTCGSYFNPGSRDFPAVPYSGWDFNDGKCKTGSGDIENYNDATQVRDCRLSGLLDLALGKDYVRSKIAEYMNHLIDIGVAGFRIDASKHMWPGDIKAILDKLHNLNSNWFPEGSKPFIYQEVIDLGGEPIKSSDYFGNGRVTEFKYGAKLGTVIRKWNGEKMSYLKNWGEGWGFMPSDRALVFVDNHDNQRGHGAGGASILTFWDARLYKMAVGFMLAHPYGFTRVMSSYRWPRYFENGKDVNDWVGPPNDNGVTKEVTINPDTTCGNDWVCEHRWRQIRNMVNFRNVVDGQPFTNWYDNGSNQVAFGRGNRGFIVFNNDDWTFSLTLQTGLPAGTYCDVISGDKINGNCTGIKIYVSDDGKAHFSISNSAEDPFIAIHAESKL

harmaline-induced tremor = details: cited from earlier work
TCD in an animal model = details: cited from earlier work
[1] = tested on: Spontaneous Brain Activity in Healthy Adults; experiment: MEG recordings of spontaneous activity, spectral analysis and ICA localization before and after self-administration of 1-octanol; format: in vivo, human; details: all subjects, five times after octanol (grand mean, s.e.m), FIG. 2
[2] = tested on: T-type (Cav3.1) calcium channels; details: in vitro; cited from earlier work
healthy adults = experiment: Seven-scale questionnaire before and after octanol administration; format: in vivo, human; details: 0.1 mg/kg, questionnaire before, 5-10 min and 120 min after
Description: (§1) The database comprises 29 healthy adults from 25-52 years of age (12 women and 17 men).
(§2) Octanol is a straight chain fatty alcohol with 8 carbon atoms CH3(CH2)7OH, and was formulated in an oral mucosal delivery format with appropriate organoleptic characteristics. It was self-administered at 0.1 mg/kg. Participants were instructed to use the spray as they would a breathe spray.
A seven-scale questionnaire was used before and at 5-10 minutes and 120 minutes, respectively, after octanol administration to examine the level of relaxation, concentration, worry, sleepiness, stress, pain and the octanol taste.

[3] = tested on: patients with essential tremor; details: cited from earlier work
[4] = tested on: Spontaneous Brain Activity in Healthy Adults; experiment: MEG recordings of spontaneous activity, spectral analysis and ICA localization before and after self-administration of 1-octanol; format: in vivo, human
Description: as §1
Spontaneous activity was recorded using a 275 channel (CTF) MEG. Six 7-min recordings were made with the eyes closed. One recording was made before self-administration of 1-Octanol. The others were made at 15, 30, 60, 90 and 120 min after.
A multi-taper approach, which provides reduced-variance calculations of frequency, was used to generate frequency spectra from each set of recordings. Changes in the power spectrum after octanol was determined by first calculating the mean spectra energy (MSE) in 2 Hz frequency bands starting at 2.5 Hz. Logarithmic transformation was applied to the power data and then the mean spectral energy (MSE) was calculated for each band before and after octanol administration. The difference in MSE before and after octanol was then calculated for each participant and the grand mean calculated (FIG. 3).
as §2
Independent component analysis (ICA) was carried out on the sensor data using the Infomax EEGLab algorithm. The magnetic field described by the ICs was localized onto a volumetric source space constructed from a population-averaged MRI using a recursive weighted minimum norm algorithm.

GABAA Receptors = details: Kurata et al., Mol Pharmacol. 1999, cited from earlier work
[5] = cited from earlier work
[6] = example subject with low frequency peaks, FIG. 5
[7] = healthy adults, 0.1 mg/kg self-administered oral mucosal spray, MEG

In the case of `OC[C@H]1O[C@@H]2O[C@H]3[C@H](O)[C@@H](O)[C@@H](O[C@H]4[C@H](O)[C@@H](O)[C@@H](O[C@H]5[C@H](O)[C@@H](O)[C@@H](O[C@H]6[C@H](O)[C@@H](O)[C@@H](O[C@H]7[C@H](O)[C@@H](O)[C@@H](O[C@H]8[C@H](O)[C@@H](O)[C@@H](O[C@H]9[C@H](O)[C@@H](O)[C@@H](O[C@H]1[C@H](O)[C@H]2O)O[C@@H]9CO)O[C@@H]8CO)O[C@@H]7CO)O[C@@H]6CO)O[C@@H]5CO)O[C@@H]4CO)O[C@@H]3CO` [γ-CD, γ-cyclodextrin], the “susceptibility to saliva-amylase degradation” value (saliva-amylase) is given as “highly susceptible”.
For `CCCCCCCCO` [Example 1-octanol, 1-octanol], the harmaline-induced tremor (harmaline-induced tremor) is listed as “prevents”, the “effect in TCD in an animal model” value (TCD in an animal model) is listed as “effective” and the “Difference in Mean Spectral Energy, alpha range” value [1] is listed as “clear increase”. For the same compound, the “Difference in Mean Spectral Energy, delta range” value [1] was “decrease”, the inferior olivary oscillations [2] was “reduces” and the “low threshold calcium currents in thalamic and inferior olivary neurons” value [2] was “reversibly reduces”. The “general, self-reported measures of wellness” value (healthy adults) was “no effect”, the “tremor in patients with essential tremor” value [3] was “reduce tremor” and the “number of ICA components in the alpha range” value ([4]; after octanol administration, FIG. 6) was “increased”. For the same compound, the “Localization of the alpha rhythms to the posterior part of the brain (ICA)” value ([4]; before and 90 minutes after octanol, FIG. 4) was “not affected”, the “alpha range peak (8.5-10.4 Hz)” value [4, 6] was “increased” and the “delta range peaks (2.5-4.4 Hz)” value [4, 6] was “reduced”. For the same compound, the “abnormal, delta range activity” value [4, 7] was “reducing”, the “normal, alpha range activity” value [4, 7] was “increases” and the beta range activity ([4]; healthy subjects, MEG) was “did not promote a significant increase”. The “lower alpha band power” value ([4]; healthy subjects, MEG) was “significantly increased”, the “power spectra in the low alpha range” value ([4]; most of the subjects, FIG. 1) was “increase and broadening” and the “power at lower frequencies” value ([4]; most subjects, FIG. 3) was “no change”. The low frequency peaks ([4]; some subjects, FIG. 7) was “not affected”, the gamma range activity ([4]; some subjects, MEG) was “increase” and the “higher theta range activity” value ([4]; some subjects, MEG) was “tendency for potentiating”. The “ICA components with delta range peaks” value ([4]; two hours after octanol administration, FIG. 6) was “no components”, the “low doses at which octanol is a slight allosteric potentiator of GABA” value (GABAA Receptors) was 1-10 μm and the “action on GABA at a higher dose” value (GABAA Receptors; higher dose) was “allosteric inhibitor”. For the same compound, the accepted daily intake ([5]; as flavoring agent in food and cosmetics, FDA and Council of Europe) was 1 mg/kg and the liver toxicity ([5]; higher dosages) was “associated with liver toxicity”.
